What was measured:
rabbit LECs = details: mechanism unknown; cited from earlier work
[1] = test system: lens epithelial cells from bovine anterior capsules; assay: Outgrowth of lens epithelial cells from bovine anterior capsules on treated slides; format: cell-based
Protocol: The tension ring is then further treated with glutaraldehyde (GA), rinsed of excess GA, and then treated with an MTX-protein conjugate. […] Control tension rings are treated with unconjugated protein (no MTX).
Outgrowth was followed for six days.

[2] = test system: epithelial cells of the lens capsule; details: solution instilled into the anterior chamber after lens removal; cited from earlier work
[3] = treated slides, outgrowth followed for six days, first evaluation

## O=C(O[C@@H]1Cc2c(O)cc(O)cc2O[C@@H]1c1cc(O)c(O)c(O)c1)c1cc(O)c(O)c(O)c1 [(−)-epigallocatechin-3-gallate (EGCG), (−)-epigallocatechin-3-gallate]
Rabbit LECs
  inhibition of proliferation of rabbit LECs: inhibit the proliferation

## CN(Cc1cnc2nc(N)nc(N)c2n1)c1ccc(C(=O)N[C@@H](CCC(=O)O)C(=O)O)cc1 [MTX (alone), methotrexate]
[1]; subsequent evaluations after the first evaluation period
  outgrowth of lens epithelial cells: not during subsequent evaluations
[1]; [3]
  outgrowth of lens epithelial cells: inhibited outgrowth
[2]
  destroying epithelial cells of the lens capsule which remain after cataract surgery: effective

## bovine serum albumin [protein (alone)]
[1]; [3]
  outgrowth of lens epithelial cells: allowed good outgrowth

## covalent conjugate of MTX: covalent conjugate of MTX with bovine serum albumin prepared using ECDI, attached via glutaraldehyde to the ethylenediamine plasma-treated surface
[1]; slides rinsed and evaluated again, second set of lens capsules
  outgrowth of lens epithelial cells: inhibited outgrowth
[1]; third set of cells on re-used slides
  outgrowth of lens epithelial cells: somewhat inhibited, but not completely
[1]; [3]
  outgrowth of lens epithelial cells: inhibited cell outgrowth

Reference: US20110082543A1, “Methods and Devices for Preventing or Delaying Posterior Capsule Opacification” (CLEO COSMETIC AND PHARMACEUTICAL COMPANY, LLC, priority 2009, published 2011)
